Values quoted from earlier work, collected in patent US6747011B1, “Antitumor drugs and methods” (A.P. Group, Inc., priority 2003, dated 2004).

Settings: alkaline and physiological conditions

COC[C@@H](C[C@H]1O[C@@](O)([C@H](O)[C@@H]2C[C@H](OC)[C@@H](O)CC/C=C(C)/C=C/[C@@H](O[C@@H]3O[C@@H](C)[C@H](OC)[C@@H](O)[C@@H]3O)[C@H](C)/C=C(C)/C=C(C)/C=C(\C)C(=O)O2)[C@H](C)[C@@H](O)[C@H]1C)OC1C[C@](C)(O)[C@@H](O[C@H]2C[C@@H](OC)[C@H](O)[C@@H](C)O2)[C@H](C)O1 (stereo partly shown) [Apoptolidin]
stability, isomerization to isoapoptolidin: unstable under alkaline and physiological conditions and readily isomerizes to isoapoptolidin
